Experimental data published in US20200080076A1, “Expressed Barcode Libraries and Uses Thereof” (The Broad Institute, Inc., priority 2018, published 2020).

What was measured:
OVCAR3 H2B-GFP cells = test: In vitro platinum-sensitive relapse model, live cell number by time-lapse imaging; type: cell-based; conditions: six days of treatment, FIG. 1C carboplatin 6.25 μM, FIG. 1D cisplatin 50 μM
Excerpt: FIGS. 1A-1E show the in vitro modeling of non-inherited drug resistance. […] FIGS. 1B-1E show relapse dynamics. Length of drug treatments are indicated as red shaded areas within the graphs. […] While much effort has been focused on experimental models to study the emergence of platinum-resistance (Cunnea & Stronach, Front Oncol 4:81 (2014)), little attention has been given to the development of robust methods to model platinum-sensitive relapse. As the clinical classification of relapse is based both on the effectiveness of the treatment and the time to recurrence, the present study aimed to establish a system that can capture both these aspects. Analogous to the CA125 levels that are used to monitor disease progression in patients, direct measurement of cell number was used to monitor response in vitro. To this end, an OVCAR3 H2B-GFP cell line was generated. OVCAR3 is a commonly used HGSOC model and the H2B-GFP allows the easy quantification of the number of live cells during the course of drug treatment. […] This response was quantified based on time-lapse images and a striking similarity was found between the pattern of platinum-sensitive relapse observed in patients (FIG. 1B), as measured by CA125 levels, and the pattern observed in vitro in this study (FIG. 1C-D). […]

[1] = system: Watermelon-transduced PC-9 cells; test: Sensitivity of Watermelon-transduced PC-9 cells to EGFR-TKIs, number of mCherry objects; type: cell-based; conditions: varying concentrations (FIGS. 6B and 6C)
Excerpt: FIGS. 6A-6D show the modeling of non-inherited drug resistance of PC-9 cells to EGFR tyrosine kinase inhibitors (EGFR-TKI).

## N.N.O=C([O-])C1(C(=O)[O-])CCC1.[Pt+2] [carboplatin]
OVCAR3 H2B-GFP cells
  response of cells to platinum treatment (number of live cells): the majority of cells died

## N.N.[Cl][Pt][Cl] [cisplatin]
OVCAR3 H2B-GFP cells
  response of cells to platinum treatment (number of live cells): the majority of cells died

## C=CC(=O)Nc1cc(Nc2nccc(-c3cn(C)c4ccccc34)n2)c(OC)cc1N(C)CCN(C)C [osimertinib]
[1]
  sensitivity of cells to EGFR-TKI (number of mCherry objects): sensitive
